Results from patent publication EP2226070B1, “Process for determining the optimal dosage of antivitamins K in anticoagulant therapy” (Puech, Roger, priority 2009, dated 2010).

Tested on: INR
Assay: Correlation of optimal dosages between different vitamin K antagonists, established with the dosage determination process
Type: in vivo, patient
Conditions: for dose correspondant à 1/4 de comprimé de "Préviscan" (corrélation proportionnelle entre différents antivitamines K): dose equivalent to 1/4 tablet of Préviscan for the optimal anticoagulant dosage
Description: Ce procédé de détermination est original en ce qu'il comprend les étapes suivantes consistant : • (a) à enregistrer la valeur IO de l'INR optimal cible, • (b) à enregistrer les valeurs d'INR mesurées dans une période donnée T1 à partir d'un surdosage Dmaxi dudit antivitamine K fixé préalablement par le prescripteur au-dessus du dosage préconisé, afin de déterminer une première pente P1 des valeurs d'INR en fonction du temps T1, • (c) à partir de la pente P1, à extrapoler et à enregistrer une valeur Imaxi d'INR théoriquement atteinte à partir du jour où la valeur IO de l'INR cible est atteinte et au bout d'une période déterminée T0, • (d) à enregistrer les valeurs d'INR mesurées dans une période donnée T2 à partir d'un sous-dosage Dmini dudit antivitamine K fixé par le prescripteur au-dessous du dosage préconisé, afin de déterminer une deuxième pente P2 des valeurs d'INR en fonction du temps T2, • (e) à partir de la pente P2, à extrapoler et à enregistrer une valeur Imini d'INR théoriquement atteinte à partir du jour où la valeur IO de l'INR cible est atteinte et au bout de la même période déterminée T0, • (f) à calculer à partir de la différence entre les valeurs Imaxi et Imini d'INR théoriquement calculées, un facteur de correction de posologie dudit antivitamine K exprimé selon la formule suivante : F = (Imaxi -Imini)/(Dmaxi -Dmini) [formula] • (g) afin de déterminer à partir de la différence entre les valeurs I0 de l'INR cible optimal et de l'Imini de l'INR minimum calculé, et dudit facteur F de correction de posologie dudit antivitamine K, la posologie adéquate D0 permettant d'atteindre et de maintenir constante la valeur Io de l'INR cible fixée préalablement selon la relation suivante : D0 = Dmini + (I0 -Imini)/(F). [formula]
C'est aussi à partir de son procédé de détermination de dosage optimal d'un antivitamine K, que le demandeur a pu établir également une corrélation proportionnelle entre différents antivitamines K (1/4 de comprimé de "Préviscan" correspond à 0,82 mg de "Sintrom", à 2 mg de "Coumadine" ou à 0,82 mg de "Apegmone") de sorte qu'à partir d'un dosage optimal d'un antivitamine K prescrit, il peut calculer le dosage optimal d'un autre antivitamine K en remplacement du premier.

| SMILES | dose correspondant à 1/4 de comprimé de "Préviscan" (corrélation proportionnelle entre différents antivitamines K) | dose de référence de la corrélation proportionnelle entre différents antivitamines K (reference dose of the proportional correlation) |
| --- | --- | --- |
| CC(=O)CC(c1ccc([N+](=O)[O-])cc1)c1c(O)c2ccccc2oc1=O (stereo not shown) [Sintrom] | 0,82 mg |  |
| O=c1oc2ccccc2c(O)c1C(CC(O)c1ccc(Cl)cc1)c1ccc(Cl)s1 (stereo not shown) [Apegmone] | 0,82 mg |  |
| O=C1c2ccccc2C(=O)C1c1ccc(F)cc1 [Préviscan] |  | 1/4 |
| CC(=O)CC(c1ccccc1)c1c(O)c2ccccc2oc1=O (stereo not shown) [Coumadine] | 2 mg |  |
